Results reported in patent publication US9290503B2, “Tricyclic compound derivatives useful in the treatment of neoplastic diseases, inflammatory disorders and immunomodulatory disorders” (CHEMBRIDGE CORPORATION, priority 2006, dated 2016).

Assays:
[1] = test system: normal cell line HEK293; assay: Myeloma-selective cytotoxicity (FIG. 11), HEK293; type: cell-based, human
From the text: (§1) All the above were active in the multiple myeloma cell line H929.

[2] = test system: multiple myeloma cell line H929; assay: Myeloma-selective cytotoxicity (FIG. 11), H929; type: cell-based, human
From the text: as §1

[3] = molecular target: T1, IGF1R tyrosine kinase (Homo sapiens, UniProt P08069); assay: IGF1R tyrosine kinase assay (Kinase-Glo ATP depletion or PT66/PT100 AlphaScreen); type: biochemical; details: FIG. 12
T1 construct: purified recombinant, 6×His- or GST-tagged kinase domain fragments of the corresponding RTKs expressed in baculovirus system; host or cells: baculovirus system
Protocol: To determine inhibition of several tyrosine kinases, such as IGF1R, InsR, Alk, TrkA and Jak2, kinase assays are conducted using either Kinase-Glo (Promega) or AlphaScreen (PerkinElmer) kinase assay platforms. The Kinase-Glo Luminescent Kinase Assay is a homogeneous method for measuring kinase activity by determining the amount of ATP remaining after a kinase reaction. The luminescent signal is proportional to the amount of ATP and inversely proportional to the amount of kinase activity. Tyrosine kinase PT66 AlphaScreen Assay is a high-sensitivity homogeneous, anti-phosphotyrosine antibody-mediated luminescent proximity method measuring incorporation of phosphate in synthetic poly(Glu-Tyr) substrate. The kinase preparations used consist of purified recombinant, 6×His- or GST-tagged kinase domain fragments of the corresponding RTKs expressed in baculovirus system.
The IGF1R tyrosine kinase is assayed in Kinase-Glo ATP depletion assay using the synthetic polymer poly(Glu-Tyr, 4:1) (Sigma Chemicals) as a phosphoacceptor substrate. Each reaction mixture consists of a total volume of 10 μl and contains 40 ng of the enzyme, 5 μg of poly(Glu-Tyr), 10 μM of ATP and variable concentrations of test compounds. The mixtures also contain 50 mM Tris-HCl, pH 7.5; 5 mM MgCl2; 5 mM MnCl2; 2 mM DTT and 0.01% Tween 20. The reaction mixtures are incubated at 37° C. for 60 minutes and residual concentration of ATP in the mixture is determined by adding luciferase-containing Kinase-Glo (Promega) development reagent and counting luminescence levels using Fusion Universal Microplate Analyzer (PerkinElmer). Tested compounds are dissolved in dimethyl sulfoxide to a stock concentration of 10 mM and are typically evaluated in the assay at eight concentrations in 1 nM to 20 μM range, each in quadruplicate. […] IC50 values are derived by non-linear regression analysis using Prism 3.0 software (Graphpad Software). […]

[4] = test system: human myeloma cell lines; assay: Effect on cell cycle, PI staining; type: cell-based; details: sensitive cell lines; 24 hours; 0.6 μM and 1.8 μM
Protocol: FIG. 6 depicts the effect of compound (2a) (i.e., CRL 103142) and compound (2b) (i.e., CRL 130323) on cell cycle. 4 human myeloma cell lines (3 sensitive and 1 resistant) were incubated for 24 hrs with indicated concentrations of compound (2a) and compound (2b) and effect on cell cycle was assessed by PI staining. Results are reported as percentage of cells in G0-G1 or S phase.
4 human myeloma cell lines (3 sensitive and 1 resistant) were incubated for 24 hours with the compounds of the invention, including compounds (2a) and (2b), with a concentration of 0.6 μM and 1.8 μM and effect on cell cycle was assessed by PI staining. Results are reported as percentage of cells in G0-G1 or S phase.

[5] = test system: human myeloma cell lines; assay: Effect on apoptosis, PI/annexin V staining; type: cell-based; details: sensitive cell lines; 48 or 72 hours; 0.6 μM and 1.8 μM
Protocol: FIG. 7 depicts the effect of compound (2a) (i.e., CRL 103142) and compound (2b) (i.e., CRL 130323) on apoptosis. 4 human myeloma cell lines (3 sensitive and 1 resistant) were incubated for 48 or 72 hrs with indicated concentrations of compound (2a) and compound (2b) and effect on apoptosis was assessed by PI/annexin V staining. Results are reported as percentage of viable (PI−/annexin V−) cells.
4 human myeloma cell lines (3 sensitive and 1 resistant) were incubated for 48 or 72 hours with the compounds of the invention, including compounds (2a) and (2b), having a concentration of 0.6 μM and 1.8 μM and effect on apoptosis was assessed by PI/annexin V staining. Results are reported as percentage of viable (PI−/annexin V−) cells.

[6] = test system: normal cell line CHO; assay: Myeloma-selective cytotoxicity (FIG. 11), CHO; type: cell-based, chinese hamster
From the text: as §1

[7] = test system: myeloma cells of primary patient sample; assay: Induction of apoptosis in primary patient sample; type: cell-based, human; details: for apoptosis of myeloma cells: primary patient sample
From the text: FIG. 8 depicts the apoptosis of myeloma cells induced by the compounds of the invention. Primary patient sample exposed to DMSO or compound (2a) (i.e., CRL 103142) or compound (2b) (i.e., CRL 130323) for 24 hr and indicated concentrations. LUQ-% viable myeloma cells and LLQ-% viable non-myeloma cells.
FIG. 9 depicts the apoptosis of myeloma cells induced by the compounds of the invention. Primary patient sample exposed to DMSO or compound (2a) (i.e., CRL 103142) or compound (2b) (i.e., CRL 130323) for 48 hr and indicated concentrations. LUQ-% viable myeloma cells and LLQ-% viable non-myeloma cells.
FIG. 10 depicts the apoptosis of myeloma cells induced by the compounds of the invention. Primary patient sample exposed to DMSO or compound (2a) (i.e., CRL 103142) or compound (2b) (i.e., CRL 130323) for 96 hr and indicated concentrations. LUQ-% viable myeloma cells and LLQ-% viable non-myeloma cells.
Primary patient sample exposed to DMSO or the compounds of the invention for 24 hours, 48 hours, and 96 hours and with a concentration of 0.4 μM, 0.6 μM, 1.2 μM, and 1.8 μM. LUQ-% viable myeloma cells and LLQ-% viable non-myeloma cells. The compounds of the invention included significant apoptosis of myeloma cells (FIGS. 8-10).

[8] = Toxicity in animals, body weight (FIG. 13); type: in vivo; details: highest doses tested

T1 sequence (P08069 999-1274 limits assumed): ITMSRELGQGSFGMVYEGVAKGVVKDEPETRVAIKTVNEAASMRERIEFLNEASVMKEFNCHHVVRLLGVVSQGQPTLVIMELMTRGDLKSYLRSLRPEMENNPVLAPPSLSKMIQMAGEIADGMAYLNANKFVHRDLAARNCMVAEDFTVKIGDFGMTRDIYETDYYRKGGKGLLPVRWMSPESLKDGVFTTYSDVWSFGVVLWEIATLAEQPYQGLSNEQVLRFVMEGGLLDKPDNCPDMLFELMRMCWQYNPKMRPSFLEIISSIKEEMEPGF

| Structure (SMILES) | toxicity in normal cell line HEK293 [1] | activity in multiple myeloma cell line H929 [2] | IGF-1R potency in vitro [3] | effect on cell cycle (percentage of cells in G0-G1 or S phase) [4] | effect on apoptosis (percentage of viable PI−/annexin V− cells) [5] | toxicity in normal cell line CHO [6] | apoptosis of myeloma cells ([7]; 24 hr) | apoptosis of myeloma cells ([7]; 48 hr) | apoptosis of myeloma cells ([7]; 96 hr) | selectivity towards multiple myeloma lines [2] | IGF-1R potency in vitro ([3]; listed as CRL130323) | toxicity in animals (body weight) [8] | toxicity in animals (body weight) ([8]; listed as CRL130323) | selectivity, viable myeloma cells versus viable non-myeloma cells ([7]; primary patient sample, 24, 48 and 96 hours) |
| --- | --- | --- | --- | --- | --- | --- | --- | --- | --- | --- | --- | --- | --- | --- |
| Cc1ccc(OC[C@H](O)CNc2cc[nH]c(=O)c2-c2nc3cc4c(cc3[nH]2)CN(C2CCN(C)CC2)C4=O)c(C)c1 [2a] | demonstrated toxicity | active | same potency range as known preclinical compounds | induced significant G1 growth arrest | induced significant apoptosis | demonstrated toxicity | induced significant apoptosis of myeloma cells | induced significant apoptosis of myeloma cells | induced significant apoptosis of myeloma cells | – | – | – | – | – |
| Cc1ccc(OC[C@H](O)CNc2cc[nH]c(=O)c2-c2nc3cc4c(cc3[nH]2)CN(C2CCN(CCS(C)(=O)=O)CC2)C4=O)c(C)c1 [2b] | did not demonstrate toxicity | active | same potency range as known preclinical compounds | induced significant G1 growth arrest | induced significant apoptosis | did not demonstrate toxicity | induced significant apoptosis of myeloma cells | induced significant apoptosis of myeloma cells | induced significant apoptosis of myeloma cells | highly selective | comparable IGF-1R potency | no signs of toxicity | no observable toxicity | more selective |
